Measured values reported in patent publication US20260184663A1, “INDENE COMPOUNDS, PHARMACEUTICAL COMPOSITIONS THEREOF, AND THEIR THERAPEUTIC APPLICATIONS” (NucMito Pharmaceuticals co. Ltd., priority 2022, published 2026).

What was measured:
Format in all cases: cell-based
HepG2 (liver cancer) = assay: Antiproliferative activity (CCK-8 cell viability), HepG2; settings: Homo sapiens, 72 h, read-out: Antiproliferative activity in cancerous cells, HepG2 (inhibition of cell growth); for inhibition at 3.3 µM: Compound concentration: 3.3 μM; for inhibition at 10 µM: Compound concentration: 10 μM
In short: (§1)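 Cells grown in DMEM (HepG2, SW480), MEM (HeLa) or F-12K (A549), each with 10% FBS, then exposed to compound at 3.3, 10 or 30 μM for 72 h at 37 °C. CCK-8 absorbance at 450 nm; viability expressed as percent of DMSO-treated cells, graded as growth inhibition bands.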

[1] = test system: B16F10 (malignant melanoma); assay: Antiproliferative activity (CCK-8 cell viability), B16F10; settings: Mus musculus, 72 h, read-out: Antiproliferative activity in cancerous cells, B16F10 (inhibition of cell growth); for inhibition at 3.3 µM: B16-F10, Compound concentration: 3.3 μM; for inhibition at 10 µM: B16-F10, Compound concentration: 10 μM
In short: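 B16F10 melanoma cells grown in DMEM with 10% FBS were plated in 96-well plates at 2,000-5,000 cells/well. After attachment they were exposed to compound in medium for 72 h at 37° C. CCK-8 solution (10 μL) was then added, and after 4 h at 37° C absorbance was read at 450 nm.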

[2] = test system: A549 (lung adenocarcinoma); assay: Antiproliferative activity (CCK-8 cell viability), A549; settings: Homo sapiens, 72 h, read-out: Antiproliferative activity in cancerous cells, A549 (inhibition of cell growth); for inhibition at 3.3 µM: Compound concentration: 3.3 μM; for inhibition at 10 µM: Compound concentration: 10 μM
In short: as §1

[3] = test system: A431 (epidermoid carcinoma); assay: Antiproliferative activity (CCK-8 cell viability), A431; settings: Homo sapiens, 72 h, read-out: Antiproliferative activity in cancerous cells, A431 (inhibition of cell growth); for inhibition at 3.3 µM: A-431, Compound concentration: 3.3 μM; for inhibition at 10 µM: A-431, Compound concentration: 10 μM
In short: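 A431 epidermoid carcinoma cells grown in DMEM with 10% FBS were plated at 2,000-5,000 cells/well in 96-well plates. After attachment they were exposed to compound at 3.3 μM, 10 μM, or 30 μM for 72 h at 37° C. Viability was then assessed by CCK-8 against DMSO vehicle-treated wells.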

HeLa (cervical cancer) = assay: Antiproliferative activity (CCK-8 cell viability), HeLa; settings: Homo sapiens, 72 h, read-out: Antiproliferative activity in cancerous cells, HELA (inhibition of cell growth); for inhibition at 3.3 µM: Compound concentration: 3.3 μM; for inhibition at 10 µM: Compound concentration: 10 μM
In short: as §1

SW480 (colon cancer) = assay: Antiproliferative activity (CCK-8 cell viability), SW480; settings: Homo sapiens, 72 h; for inhibition at 3.3 µM: Compound concentration: 3.3 μM; for inhibition at 3.3 µM / inhibition at 10 µM: read-out: Antiproliferative activity in cancerous cells, SW480 (inhibition of cell growth); for inhibition at 10 µM: Compound concentration: 10 μM; for inhibition at 30 µM: Compound concentration: 30 μM, read-out: Antiproliferative activity in cancerous cells, SW480
In short: as §1

[4] = test system: MDA-MB-231 (breast cancer); assay: Antiproliferative activity (CCK-8 cell viability), MDA-MB-231; settings: Homo sapiens, 72 h, read-out: Antiproliferative activity in cancerous cells, MDA-MB-231 (inhibition of cell growth); for inhibition at 3.3 µM: Compound concentration: 3.3 μM; for inhibition at 10 µM: Compound concentration: 10 μM
In short: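 MDA-MB-231 breast cancer cells, grown in DMEM with 10% FBS, were plated in 96-well plates at 2,000-5,000 cells/well. Once attached, they were exposed to compound and incubated at 37° C. for 72 h. Viability was then measured with CCK-8 (10 μL per well, 4 h at 37° C.) by absorbance at 450 nm, relative to DMSO vehicle wells.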

Structure (SMILES)	inhibition at 3.3 µM (HepG2 (liver cancer)) [%]	inhibition at 10 µM (HepG2 (liver cancer)) [%]	inhibition at 3.3 µM [1] [%]	inhibition at 10 µM [1] [%]	inhibition at 3.3 µM [2] [%]	inhibition at 10 µM [2] [%]	inhibition at 3.3 µM [3] [%]	inhibition at 10 µM [3] [%]	inhibition at 3.3 µM (HeLa (cervical cancer)) [%]	inhibition at 10 µM (HeLa (cervical cancer)) [%]	inhibition at 3.3 µM (SW480 (colon cancer)) [%]	inhibition at 10 µM (SW480 (colon cancer)) [%]	inhibition at 30 µM (SW480 (colon cancer)) [%]	inhibition at 3.3 µM [4] [%]	inhibition at 10 µM [4] [%]
COc1ccc2c(c1)C(CC(=O)O)=C(C)/C2=C/c1ccc(Oc2cccc(Cl)c2)cc1 [C73, (Z)-2-(1-(4-(3-Chlorophenoxy)benzylidene)-5-methoxy-2-methyl-1H-inden-3-yl)acetic acid]	< 30	< 30	30 to 50	≥ 50	< 30	< 30	30 to 50	≥ 50	30 to 50	≥ 50	< 30	< 30	30 to 50	< 30	30 to 50
COc1ccc2c(c1)C(CC(=O)O)=C(C)/C2=C/c1ccc(Oc2ccc(Cl)cc2)cc1C [C74, (Z)-2-(1-(4-(4-Chlorophenoxy)-2-methylbenzylidene)-5-methoxy-2-methyl-1H-inden-3-yl)acetic acid]	< 30	≥ 50	≥ 50	≥ 50	30 to 50	≥ 50	≥ 50	≥ 50	< 30	≥ 50	< 30	30 to 50		≥ 50	≥ 50
COc1ccc2c(c1)C(CC(=O)O)=C(C)/C2=C/c1ccc(Oc2ccc(F)c(F)c2)cc1 [C75, (Z)-2-(1-(4-(3,4-Difluorophenoxy)benzylidene)-5-methoxy-2-methyl-1H-inden-3-yl)acetic acid]	< 30	≥ 50	≥ 50	≥ 50	30 to 50	≥ 50	≥ 50	≥ 50	≥ 50	≥ 50	< 30	30 to 50		≥ 50	≥ 50
CC1=C(CC(=O)O)c2cc(Cl)ccc2/C1=C\c1ccc(Oc2ccc(F)c(F)c2)cc1 [C76, (Z)-2-(5-Chloro-1-(4-(3,4-difluorophenoxy)benzylidene)-2-methyl-1H-inden-3-yl)acetic acid]	< 30	≥ 50	30 to 50	≥ 50	30 to 50	≥ 50	≥ 50	≥ 50	30 to 50	≥ 50	< 30	≥ 50		< 30	≥ 50
CC1=C(CC(=O)O)c2cc(Br)ccc2/C1=C\c1ccc(Oc2ccc(Cl)cc2)cc1 [C77, (Z)-2-(5-Bromo-1-(4-(4-chlorophenoxy)benzylidene)-2-methyl-1H-inden-3-yl)acetic acid]	30 to 50	≥ 50	≥ 50	≥ 50	< 30	≥ 50	< 30	< 30	≥ 50	≥ 50	< 30	30 to 50		≥ 50	≥ 50
CC1=C(CC(=O)O)c2cc(F)ccc2/C1=C\c1ccc(Oc2ccc(Cl)cc2)cc1F [C78, (Z)-2-(1-(4-(4-Chlorophenoxy)-2-fluorobenzylidene)-5-fluoro-2-methyl-1H-inden-3-yl)acetic acid]	< 30	≥ 50	< 30	≥ 50	≥ 50	≥ 50	< 30	≥ 50	< 30	≥ 50	< 30	30 to 50		≥ 50	≥ 50
CC1=C(CC(=O)O)c2cc(F)ccc2/C1=C\c1ccc(Oc2ccc(Cl)cc2)cc1Oc1ccc(Cl)cc1 [C79, (Z)-2-(1-(2,4-Bis(4-chlorophenoxy)benzylidene)-5-fluoro-2-methyl-1H-inden-3-yl)acetic acid]	≥ 50	≥ 50	≥ 50	≥ 50	≥ 50	≥ 50	≥ 50	≥ 50	≥ 50	≥ 50	≥ 50	≥ 50		≥ 50	≥ 50
CC1=C(CC(=O)O)c2cc(F)ccc2/C1=C\c1ccc(Oc2ccc(Cl)cc2)cc1O [C80, (Z)-2-(1-(4-(4-Chlorophenoxy)-2-hydroxybenzylidene)-5-fluoro-2-methyl-1H-inden-3-yl)acetic acid]	< 30	≥ 50	30 to 50	≥ 50	30 to 50	≥ 50	30 to 50	≥ 50	< 30	≥ 50	< 30	≥ 50		≥ 50	≥ 50
CC1=C(CC(=O)O)c2cc(F)ccc2/C1=C\c1ccc(Oc2ccc(O)c(Cl)c2)cc1 [C81, (Z)-2-(1-(4-(3-Chloro-4-hydroxyphenoxy)benzylidene)-5-fluoro-2-methyl-1H-inden-3-yl)acetic acid]	< 30	≥ 50	< 30	≥ 50	30 to 50	≥ 50	30 to 50	≥ 50	30 to 50	≥ 50	< 30	< 30		30 to 50	≥ 50
COc1ccc(Oc2ccc(/C=C3/C(C)=C(CC(=O)O)c4cc(Cl)ccc43)cc2)cc1 [C82, (Z)-2-(5-Chloro-1-(4-(4-methoxyphenoxy)benzylidene)-2-methyl-1H-inden-3-yl)acetic acid]	< 30	≥ 50	≥ 50	≥ 50	30 to 50	≥ 50	≥ 50	≥ 50	< 30	≥ 50	< 30	< 30	30 to 50	≥ 50	≥ 50
